This note sets out measurements from patent US9486507B2, “Pro-coagulant compounds and methods of use thereof” (priority 2011, dated 2016).

Bounds are passed on as bounds.

The test system of test [1] is FVIII deficient human plasma. Nature of the test: Rotational thromboelastometry (ROTEM) in FVIII-deficient human plasma. It counts as biochemical. The settings on record: for Clotting time, sec (avg.) / α-angle, degrees (avg.): human HemA plasma, lyophilized platelets, 10 fM lipTF.
In test [2] the test system is 10% FVIII-deficient human plasma. Description: Modified activated partial thromboplastin time (aPTT*) assay. Format: biochemical. How it is done: For the activated Partial Thromboplastin Time (aPTT) assay peptides to be tested were first diluted in 10% FVIII-deficient human plasma. For the aPTT* the peptides were diluted in 10% FVIII-deficient human plasma that contained traces of hFIXa (anywhere between 0 and 8.8 nM hFIXa depending on the assay) in Tris/NaCl/BSA buffer. The peptides were incubated for 10 minutes at room temperature and then assayed for clotting on a Sysmex instrument that recorded the clotting time observed for each sample. The times were compared to those of a standard curve derived from standards with known FVIII activity (U/mL) in order to determine the clotting outcome.

For test [3], the target named is T1, FIXa (Homo sapiens, UniProt P00740). Description: Km/Kcat of FIXa for the substrate FX (FXa generation assay). It counts as biochemical. Further details: purchased Haematologic Technologies. The following applies: compound 1 3 μM, compounds 3, 4, 5 1 μM, compound C 10 μM; for Km / kcat: hFIXa 10 nM, FX 10-1000 nM, PL, CaCl2; for Δ kcat: relative to buffer (1.0). How it is done: To determine the Km and Kcat of FIXa or FVIIa for the substrate FX, the FXa generation assay described above was used with the following modifications. […] Reactions were set up with varying concentrations of FX ranging between 400 and 0.8 nM and the rates of FXa generation were determined for each peptide at the different FX concentrations tested as described above. […] The catalytic constant (Kcat) was calculated by normalizing the Vmax to the enzyme concentration.
FIXa was used at 10 nM, and FX was used at 10-1000 nM. The assay was performed in the presence of phospholipids (PL) and calcium chloride.

In test [4] the target is T1, FIXa. Nature of the test: FXa generation assay with human FIXa. Format: biochemical. The arrangement: purchased Haematologic Technologies. The following applies: for Vmax: class symbols.
The target in test [5] is T1, FIXa. Nature of the test: Incubation with FIXa in FXa generation assay buffer, LC-MS. It counts as biochemical. The following applies: compound 3 100 μM; FIXa 0, 10 nM, 1 μM; with or without BSA; 3 hours. Here is the method:
The mixtures were then analyzed by LC-MS.

Test [6] concerns the target T1, FIXa. Description: FXa generation assay with compound 3, phospholipid and Gla-domain dependency. It counts as biochemical. The following applies: compound 3 1 μM. The text has this: Formation of FXa was monitored using a chromogenic substrate as described in the FXa generation assay directly above (see b.1.).
Test [7] concerns the target T2, recombinant human factor IXa (hFIXa) (Homo sapiens, UniProt P00740).
T2 construct: purchased Hematologic Technologies
Description: Hydrogen/deuterium exchange mass spectrometry (H/DX-MS) of hFIXa. It counts as binding. The following applies: hFIXa 1 μM with vs without compound 4 12 μM. Here is the method: Hydrogen/deuterium exchange mass spectrometry (H/DX-MS) was utilized to study the higher-order structural analysis of recombinant human factor IXa (hFIXa) in combination with and without compound 4. The general method can be found in the following references: Engen and Smith (2001) Anal. Chem. 73, 256A-265A.; Wales and Engen (2006) Mass Spectrum. Rev. 25, 158-170.
FIXa samples were equilibrated at ambient temperature (20±1° C.) for 1 hour before labeling with deuterated buffer (reaction buffers described above). The samples were then diluted 1:15 with deuterated buffer and incubated, allowing hydrogen exchange to occur for various amounts of time (10 seconds, 1, 10, 60, and 240 minutes), before the reaction was quenched with a 1:1 dilution of 200 mM citrate, 8 M guanidinium HCl, and 0.5 M TCEP, pH 2.33. Quenched samples were then incubated for 20 seconds before being further diluted 1:1 with 0.1% formic acid and immediately injected into the LC-MS system for analysis.
Approximately 7 μg of exchanged/quenched FIXa was injected onto an immobilized pepsin column where the digestion and peptide trapping were performed for 3 minutes with a flow rate of 0.1 mL/min in 0.1% formic acid at 10° C. […] Mass spectra were acquired and peptic peptides were identified using a combination of exact mass and MS, aided by Waters Identity software (Silva J C et al., 2006. Absolute quantification of proteins by LCMSE: a virtue of parallel MS acquisition. Mol Cell Proteomics, 5(1): p144). […] The amount of deuterium in each peptide was determined by subtracting the mass of the undeuterated peptide from the mass of the deuterated peptide, incubated at various HDX time points (which were uncorrected for any back exchange). […]
The difference in deuterium exchange between FIXa and FIXa with compound 4 was determined by subtracting the mass of each FIXa peptide from the mass of the corresponding FIXa with compound 4. […] The sum of these differences, across all time points, was calculated. […]

Test [8] addresses T3, FXa or the prothrombinase complex (Homo sapiens, UniProt P00742).
T3 construct: Under these conditions FIXa cleaves the zymogen FX into the active form FXa
Description: FXa / prothrombinase activity in purified thrombin generation assay. Format: biochemical. The following applies: 1 μM; FXa 0.05 ug/mL, with or without FV. Here is the method: In another experiment it was determined whether or not the compounds of the present disclosure directly enhance the activity of FXa or the prothrombinase complex.

Test [9] has as its system purified recombinant human coagulation factors. Description: Thrombin generation assay using purified hemostatic components. It counts as biochemical. The following applies: compounds 1 μM; FVIII 0.1 or 1 IU/mL (FIG. 5).
Test [10] deals with thrombin (Homo sapiens, UniProt P00734). The settings on record: thrombin 1.4 nM, conjugate A 10 μM, PBS, 37° C. How it is done: Conjugate A (21 μL, 0.24 mM) in water was added to 476.5 μL PBS. […] The mixture was incubated at 37° C. Aliquots (60 μL) at various time points were quenched with 1 μL of hirudin (10 μM) and injected into the HPLC (C-18 column, CH3CN/H2O, 0 to 70% over 12 minutes, 60° C. 0.5 mL/min, ? =280 nm).

The subject of test [11] is FVIII deficient human plasma. Nature of the test: Thrombin generation assay (TGA) in FVIII-deficient plasma. It counts as biochemical. Further details: key to Thrombin Above Baseline (nM): 1-10 nM (1) or 1-29 nM (2) (+); 11-20 nM (1) or 30-59 nM (2) (++); 21-30 nM (1) or 60-90 nM (2) (+++); >30 nM (1) or >90 nM (2) (++++); At or about baseline (−). The settings on record: HRF FVIII-deficient plasma (1).

Test [12] addresses mouse FIXa (mFIXa) (Mus musculus, UniProt P16294). Nature of the test: FXa generation assay with mouse FIXa. The settings on record: mFIXa compared to hFIXa. Format: biochemical. The text has this:
The data confirms that the peptide was selected for binding to hFIXa.

Setting [13] is: FXa generation assay, 10 nM hFIXa, 100 nM hFX.
[14] abbreviates: aPTT*, D-amino acid scan of compound 1, listed as WT.

By Km is commonly meant the concentration of substrate that gives half-maximal velocity. Broadly, the kcat is the number of substrate molecules converted per active site and unit of time at saturation. On to RRAPGKLQCLASYCWLFWTGIA [Compound 3], for which the “clotting time and α-angle with neutralizing anti-FVIII antibody” value in [1] (10 uM, polyclonal sheep IgG against human FVIII, 1:100) is listed as “independent of residual FVIII”. The “clotting time compared with FVIII (100% FVIII = 1 IU/mL)” value in [1] (compound 3 at 5 μM, faster than) is over 100 % FVIII. Also, the “α-angle corresponding to FVIII” value in test [1] (compound 3 at 10 μM) is given as “about 20 % FVIII”. In addition, the “Clotting time, sec (avg.)” value was determined as 792 s in test [1] (0.625 μM), 452 s in [1] (2.5 μM), 329 s in [1] (5 μM) and 205 s in [1] (10 μM). Also, the “α-angle, degrees (avg.)” value in [1] (0.625 μM) was 29 degrees; in [1] (2.5 μM) it was 33 degrees; in [1] (5 μM), 38 degrees; in [1] (10 μM) it was 51 degrees. For the same substance, the “Clotting time” value in test [2] (aPTT*, exogenous hFIXa 0.5 nM) came out at 115.2 s; in test [2] (aPTT*, exogenous hFIXa 8.8 nM), 41.9 s. Also, the “Clotting time, sec” value in test [2] (aPTT*, exogenous hFIXa 0.5 nM) is 115.6; sec; in [2] (aPTT*, exogenous hFIXa 8.8 nM) it was 45.4; sec. For the same substance, the Km in test [3] turned out to be 0.016 ± 0.0035 µM. Further, the kcat in [3] was 0.000295 s⁻¹. Also, the Δ kcat in test [3] is reported as 197. Further, in test [4] (FXa generation assay using human FIXa), the Vmax entry is “(++++) ((++++)>3)”. In addition, the “Vmax (mOD/min min)” value stood at 2.77 mOD/min min in test [4] (PL: No) and 3.90 mOD/min min in [4] (PL: Yes). Further, the “substrate for FIXa (LC-MS)” value in [5] was “not a substrate for FIXa”. Also, the “Percentage of control (FXa generation)” value in test [6] (+PL) is 100%; in test [6] (+PL +anti-FIX IgG (Gla)), 58.0%; in [6] (−PL) it was 90%.
RRAPGKLTCLASYCWLFWTGIA [Compound 4]: in test [7], the “FIXa peptide with most important significant difference in H/D exchange” value is “heavy chain peptide 177-185”, the “difference index DI(1)” value amounted to 2 and the “difference index DI(2)” value stood at 0. In addition, in test [3], the Km was 0.011 ± 0.0027 µM, the kcat is 0.000285 s⁻¹ and the Δ kcat came out at 190. The Vmax entry in test [4] (setting [13]) is reported as “(+++) ((+++)>2)”. Moreover, the “catalytic activity of FXa or the prothrombinase complex” value in test [8] is reported as “did not substantially increase the catalytic activity of FXa or the prothrombinase complex”. Also, in test [9], the thrombin generation result is “induce thrombin generation”.
For the substance “Cys(Acm)-Gly-Gly-Gly-Gly-Dphe-Pip-Arg-PABC-rRAPGKLTCLASYCWLFWTGIA-NH2 (Disulfide) [conjugate A]”, the “incubation time to full cleavage by thrombin” value in [10] is on record as “about 60 min”.
KLTCLASYCWLF [Compound 1]: the “Clotting time” value in test [2] (aPTT* with FIXa, 5 μM) was found to be 47.9 s; in test [2] (aPTT* with FIXa, 10 μM), 43.3 s; in test [2] (aPTT* with FIXa, 20 μM) it was 43.8 s; in test [2] (setting [14]), 47.8 s; in [2] (aPTT*, FIXa 1 nM), 107.4 s; in test [2] (aPTT*, FIXa 2 nM), 82.8 s. For the same substance, the “Clotting time” value in [2] (aPTT*, FIXa 4 nM) was found to be 50.6 s; in test [2] (aPTT*, FIXa 8 nM), 40.6 s. Besides, the “Clotting time, sec” value in [2] (aPTT* with FIXa, 5 μM) is 47.3; sec; in test [2] (aPTT* with FIXa, 10 μM), 44.2; sec; in test [2] (aPTT* with FIXa, 20 μM), 43.5; sec; in [2] (setting [14]), 47.9; sec; in [2] (aPTT*, FIXa 1 nM), 105.8; sec; in [2] (aPTT*, FIXa 2 nM) it was 84.4; sec. The “Clotting time, sec” value is 50.9; sec in test [2] (aPTT*, FIXa 4 nM) and 40.1; sec in [2] (aPTT*, FIXa 8 nM). The Km in [3] was found to be 0.024 ± 0.0048 µM. Moreover, the kcat in [3] worked out at 0.00024 s⁻¹. For the same substance, the Δ kcat in test [3] turned out to be 160. The Vmax result in test [4] (setting [13]) is on record as “(+++) ((+++)>2)”; in [12], “greatly reduced”. In addition, the “Vmax (mOD/min min)” value in [4] (PL: No) came to 2.60 mOD/min min; in [4] (PL: Yes), 3.98 mOD/min min. The “Thrombin Above Baseline (nM)” value in test [11] (2.5 μM), in [11] (5 μM), in test [11] (10 μM) and in test [11] (20 μM) was “−” throughout.
